Reference: patent publication US8022080B2, “Small molecules with antiprotozoal activity” (Radix Pharmaceuticals Inc., priority 2009, dated 2011)
≈ marks a conversion by molar mass, not a printed value. Where two headings read alike, the source gives them in different places.

Tests used:
[1] = test system: P. falciparum D6 (chloroquine sensitive); assay: In vitro anti-malarial activity, [3H]hypoxanthine uptake, D6 clone; assay type: cell-based, Plasmodium falciparum
Description: (§1) For in vitro toxicological studies, the following cell line was chosen: human adult liver epithelial cells (THLE-3). THLE-3 cells express phenotypic characteristics of normal adult liver epithelial cells and constitute a valuable model for pharmacotoxicological studies.
(§2) Two P. falciparum malaria parasite clones, W2 and D6, from Malaria Research and Reference Reagent Resource Center (MR4), were utilized in susceptibility testing. […] Test compounds were initially dissolved in DMSO and diluted 400 fold in RPMI 1640 culture medium supplemented with 25 mM Hepes, 32 mM NaHCO3 and 10% Albumax I (Gibco, N.Y.). These solutions were subsequently serially diluted two-fold with a Beckman Biomek® 1000 Robot (Fullerton, Calif.) over 11 different concentrations. The parasites were exposed to serial dilutions of each compound for 48 hrs and incubated at 37° C. with 5% O2, 5% CO2 and 90% N2 prior to the addition of [^3H]hypoxanthine. After a further incubation of 18 hrs, parasite DNA was harvested from each microtiter well using Packard Filtermate™ 196 Harvester (Meriden, Conn.) onto glass filters. Uptake of [^3H]hypoxanthine was measured with a Packard TopCount Liquid Scintillation Counter (Packard Instrument Co.).

[2] = test system: human adult liver epithelial cells (THLE-3); assay: In vitro toxicity evaluation, Sulforhodamine B; assay type: cell-based; details: for IC50: Homo sapiens, read-out: IC50 THLE-3; for Selectivity IC50 (THLE-3)/IC50 (D6): ratio THLE-3 vs D6
Method: as §1
Human adult liver epithelial cells (THLE-3) was maintained in tissue culture flasks in Waymouth's medium (Gibco, N.Y.) supplemented with 10% fetal bovine serum. Toxicity tests were performed in 96-well tissue culture plates using the protein-binding dye Sulforhodamine B. Test compounds were serially diluted and added to empty wells of the 96-well plate. THLE-3 cells in their culture medium were immediately seeded into the wells. Solvent blanks (no compound) were run in each test. After 72 hours under culture conditions cells were fixed to the plate by layering 50% TCA (4° C.) over the growth media in each well to produce a final TCA concentration of 10%. After incubating for one hour at 4° C., cultures were washed five times with tap water and left air-dried. Wells were stained for 30 min. with 0.4% (w/v) SRB in 1% acetic acid and washed four times with 1% acetic acid. Cultures were left air-dried and bound dye was solubilized with 10 mM Tris base (pH 10.5) for 15 min. on a gyratory shaker at room temperature. A Spectra MAX Plus Microtiter Plate Reader (Molecular Devices, Menlo Park, Calif.) was used to measure the optical density at wavelengths of 490-530 nm.

P. berghei [3] = assay: Blood schizontocidal test in mice, oral; assay type: in vivo; details: for toxicity in mice: oral, at the highest dose tested
Method: Drugs were mixed in 0.5% hydroxycellulose 0.1% Tween 80 and administered orally b.i.d. on days 3, 4 and 5 postinfection. CD-1 male or female mice, 5 weeks of age, were infected with 5×10^4 parasitized erythrocytes of Plasmodium berghei KBG-173 mm strain. Blood films were taken on day +6 and weekly thereafter until day +60. Parasitemias were calculated and SD90 value (dose suppressing 90% of the parasites in treated groups compared with the infected non-treated controls) on day +6 postinfection. Mortality data was tabulated for 60 days at which time all mice surviving that were blood film negative were considered cured. […]

[4] = test system: P. falciparum W2 (chloroquine resistant); assay: In vitro anti-malarial activity, [3H]hypoxanthine uptake, W2 clone; assay type: cell-based, Plasmodium falciparum
Description: as §1, §2

[5] = test system: Plasmodium berghei KBG-173; assay: Prophylactic test in mice, oral; assay type: in vivo; details: for Mice infected and treated/Mice surviving day 60: oral; for protection from malaria: single dose of 0.5 mg/kg within 2 days pre-infection through 2 days post-infection
Method: Compounds were tested for oral prophylactic activity.
CD-I male or female mice, 5 weeks of age, were infected with 5×10^4 parasitized erythrocytes of Plasmodium berghei KBG-173 mm strain. […]

P. berghei [6] = assay: Suppressive blood schizontocidal activity in mice, subcutaneous single dose; assay type: in vivo; details: 72 h after infection
Method: Mice were treated with a single dose of the compound administered subcutaneously 72 h after infection. Number of cures is the number of mice surviving, out of five, 60 days postinfection.

[7] = oral dose 0.25 mg/kg/day (total dose 0.75 mg/kg)
[8] = oral dose 1.0 mg/kg/day (total dose 3.0 mg/kg)
[9] = oral dose 4.0 mg/kg/day (total dose 12 mg/kg)
[10] = oral dose 16 mg/kg/day (total dose 48 mg/kg)
[11] = oral dose 64 mg/kg/day (total dose 192 mg/kg)
[12] = day of treatment 1, dose 0.5 mg/kg
[13] = day of treatment 1, dose 2 mg/kg
[14] = day of treatment 1, dose 8 mg/kg
[15] = day of treatment 1, dose 32 mg/kg
[16] = day of treatment 2, dose 0.5 mg/kg
[17] = day of treatment 2, dose 2 mg/kg
[18] = day of treatment 2, dose 8 mg/kg
[19] = day of treatment 2, dose 32 mg/kg
[20] = day of treatment −1, dose 0.5 mg/kg
[21] = day of treatment −1, dose 2 mg/kg
[22] = day of treatment −1, dose 8 mg/kg
[23] = day of treatment −1, dose 32 mg/kg
[24] = day of treatment −2, dose 0.5 mg/kg
[25] = day of treatment −2, dose 2 mg/kg
[26] = day of treatment −2, dose 8 mg/kg
[27] = day of treatment −2, dose 32 mg/kg
[28] = Plasmodium falciparum, D6; read-out: IC50 D6 Strain
[29] = THLE3, THLE-3 cells, 72 hours, cell growth inhibition
[30] = subcutaneous single dose 1 mg/kg
[31] = subcutaneous single dose 2 mg/kg
[32] = subcutaneous single dose 4 mg/kg
[33] = subcutaneous single dose 8 mg/kg
[34] = subcutaneous single dose 16 mg/kg
[35] = subcutaneous single dose 32 mg/kg
[36] = subcutaneous single dose 64 mg/kg
[37] = subcutaneous single dose 128 mg/kg
[38] = Plasmodium falciparum, W2; read-out: IC50 W2 Strain

Row | SMILES | Selectivity IC50 (THLE-3)/IC50 (D6) [2] | Mice surviving 60 days/Mice infected and treated (P. berghei [3]; [7]) | Mice surviving 60 days/Mice infected and treated (P. berghei [3]; [8]) | Mice surviving 60 days/Mice infected and treated (P. berghei [3]; [9]) | Mice surviving 60 days/Mice infected and treated (P. berghei [3]; [10]) | Mice surviving 60 days/Mice infected and treated (P. berghei [3]; [11]) | Mice infected and treated/Mice surviving day 60 [5, 12] | Mice infected and treated/Mice surviving day 60 [5, 13] | Mice infected and treated/Mice surviving day 60 [5, 14] | Mice infected and treated/Mice surviving day 60 [5, 15] | Mice infected and treated/Mice surviving day 60 [5, 16] | Mice infected and treated/Mice surviving day 60 [5, 17] | Mice infected and treated/Mice surviving day 60 [5, 18] | Mice infected and treated/Mice surviving day 60 [5, 19] | Mice infected and treated/Mice surviving day 60 [5, 20] | Mice infected and treated/Mice surviving day 60 [5, 21] | Mice infected and treated/Mice surviving day 60 [5, 22] | Mice infected and treated/Mice surviving day 60 [5, 23] | Mice infected and treated/Mice surviving day 60 [5, 24] | Mice infected and treated/Mice surviving day 60 [5, 25] | other results
1 | CCN(CC)CCCC(C)Nc1ccnc2cc(Cl)ccc12 (centres unmarked) [Chloroquine, reference compound] | 463 | 0/7 | 0/7 | 2/7 | 4/7 | 0/7 | – | – | – | – | – | – | – | – | – | – | – | – | – | – | IC50 ([1]; Plasmodium falciparum, D6, read-out: IC50 D6 Strain): 6.3 ng/mL (≈ 0.0197 µM); IC50 ([2]; THLE3, 72 h): 2920 ng/mL (≈ 9.13 µM); IC50 ([4]; Plasmodium falciparum, W2, read-out: IC50 W2 Strain): 108 ng/mL (≈ 0.338 µM)
2 | CC[C@@]12C=Cc3nc4c(OC)c(OC)c5c(c4cc3C1N(C(C)=O)CC1O[C@@H]12)C(=O)[C@](C)(C(=O)OC)N5C(C)=O (some centres unmarked) [Formula II] | 7.3 × 10^4 | 7/7 | 7/7 | 7/7 | 7/7 | 7/7 | 5/5 | 5/5 | 5/5 | 5/5 | 5/5 | 5/5 | 5/5 | 5/5 | 5/5 | 5/5 | 5/5 | 5/5 | 5/5 | 5/5 | Mice infected and treated/Mice surviving day 60 [5, 26]: 5/5; Mice infected and treated/Mice surviving day 60 [5, 27]: 5/5; protection from malaria [5]: completely protected from malaria; inhibitory activity against chloroquine sensitive malaria strain (D-6), in words ([1]; D-6 strain): equally potent inhibitory activity; IC50 [1, 28]: 0.21 ng/mL; IC50 [2, 29]: 15400 ng/mL; toxicity in mice (P. berghei [3]): no mice showed toxicity; Mice surviving 60 days/Mice infected and treated (P. berghei [6]; [30]): 4/5; Mice surviving 60 days/Mice infected and treated (P. berghei [6]; [31]): 5/5; Mice surviving 60 days/Mice infected and treated (P. berghei [6]; [32]): 5/5; Mice surviving 60 days/Mice infected and treated (P. berghei [6]; [33]): 5/5; Mice surviving 60 days/Mice infected and treated (P. berghei [6]; [34]): 5/5; Mice surviving 60 days/Mice infected and treated (P. berghei [6]; [35]): 5/5; Mice surviving 60 days/Mice infected and treated (P. berghei [6]; [36]): 5/5; Mice surviving 60 days/Mice infected and treated (P. berghei [6]; [37]): 5/5; IC50 [4, 38]: 0.23 ng/mL; inhibitory activity against chloroquine resistant malaria strain (W-2), in words ([4]; W-2 strain): equally potent inhibitory activity
3 | CC[C@]12C=CCN(C(C)=O)C1c1cc3c(nc1C=C2)c(OC)c(OC)c1c3cc(C(=O)SC)n1C(C)=O (some centres unmarked) [Formula I] | 5.3 × 10^4 | 7/7 | 7/7 | 7/7 | 7/7 | 7/7 | 5/5 | 5/5 | 5/5 | 5/5 | 5/5 | 5/5 | 5/5 | 5/5 | 5/5 | 5/5 | 5/5 | 5/5 | 5/5 | 5/5 | Mice infected and treated/Mice surviving day 60 [5, 26]: 5/5; Mice infected and treated/Mice surviving day 60 [5, 27]: 5/5; protection from malaria [5]: completely protected from malaria; inhibitory activity against chloroquine sensitive malaria strain (D-6), in words ([1]; D-6 strain): equally potent inhibitory activity; IC50 [1, 28]: 0.32 ng/mL; IC50 [2, 29]: 17100 ng/mL; toxicity in mice (P. berghei [3]): no mice showed toxicity; Mice surviving 60 days/Mice infected and treated (P. berghei [6]; [30]): 4/5; Mice surviving 60 days/Mice infected and treated (P. berghei [6]; [31]): 5/5; Mice surviving 60 days/Mice infected and treated (P. berghei [6]; [32]): 5/5; Mice surviving 60 days/Mice infected and treated (P. berghei [6]; [33]): 5/5; Mice surviving 60 days/Mice infected and treated (P. berghei [6]; [34]): 5/5; Mice surviving 60 days/Mice infected and treated (P. berghei [6]; [35]): 5/5; Mice surviving 60 days/Mice infected and treated (P. berghei [6]; [36]): 5/5; Mice surviving 60 days/Mice infected and treated (P. berghei [6]; [37]): 5/5; IC50 [4, 38]: 0.29 ng/mL; inhibitory activity against chloroquine resistant malaria strain (W-2), in words ([4]; W-2 strain): equally potent inhibitory activity
